Data reported in patent US6372297B1, “Wood preservative oxathiazines” (Uniroyal Chemical Company, Inc., priority 1993, dated 2002).

Key:
[1] = tested on: blue-stain fungi and molds; assay: Activity against blue-stain fungi and molds on a stick test on vermiculite (paint film); set-up: key to Surface score of wooden sticks treated with paint formulation, C. cladosporioides / Surface score of wooden sticks treated with paint formulation, P. purpurogenum / Surface score of wooden sticks treated with paint formulation, P. violacea / Surface score of wooden sticks treated with paint formulation, R rubra (y) / Surface score of wooden sticks treated with paint formulation, S. chartarum / Surface score of wooden sticks treated with paint formulation, A. versicolor / Surface score of wooden sticks treated with paint formulation, A. pullulans: 0: No growth; Trace of growth of up to 1% coverage of the test inoculated area; 2: Growth covering between 1 and 10% of the inoculated test area; Growth covering between 10 and 30% of the inoculated test area; 4: Growth covering between 30 and 70% of the inoculated test area; 5: Growth covering more than 70t of the inoculated test area; conditions: 12 weeks on vermiculite; for Surface score of wooden sticks treated with paint formulation, R rubra (y): R rubra (yeast)
Protocol: Beech sticks (73×18×2 mm) Fagus sylvatica were painted, allowed to dry, and sterilized by γ-radiation (1.2 mRad). […] The coated sticks prepared above were then dipped in a spore suspension of pure culture of each fungus. Seven sticks each were placed in autoclaved Petri dishes (200 mm in diameter, 30 mm in height) containing 300 ml of vermiculite and 120 ml of water, and incubated for 12 weeks. The surfaces of the sticks were then examined for the growth of fungus and were evaluated according to the following scoring system: 0: No growth 1: […] 2: […] 3: […] 4. […] 5. Growth covering more than 70t of the inoculated test area.

[2] = tested on: mixed spore suspension: Aureobasidium pullulans, Aspergillus amstelodami, Ceratocystis pilifera, Cladosporium sp., Penicillium sp., Sclerophomas entoxylina …; assay: Control of molds and sapstain fungi in mini-board test
Excerpt: Representative compounds of this invention to be tested, were suspended in an aqueous solution containing 7.5% GENAPOL X 080™ (Hoechst-Celanese Corporation), and 20% propylene glycol monomethyl ether, to prepare the test solutions. […]
Deep frozen boards (300×50×10 mm) of freshly felled sapwood of Pinus sylvestrus (mini-boards) were thawed at room temperature. One half of each mini-board was immersed in a test solution for 20 seconds. The mini-boards were then sprayed with mixed spore suspension containing the following fungi:
Sclerophomas entoxylina, and
and stored in incubation boxes at 25° C. and at 100% relative humidity, for three weeks. For each compound tested, each concentration of test solution was applied to five different mini-boards.
The efficacy of the test compounds was determined by comparing the fungal growth on both the treated and untreated parts of the mini-boards.
The degree of infection was scored according to the following scale:
1=Traces of fungal growth
4=Vigorous to maximum growth (all surfaces covered with fungal growth)

[3] = tested on: mixed spore suspension of blue-stain fungus and molds; assay: Activity against blue-stain fungi and molds in a mold cabinet test (BS3900: Part G6)
Protocol: Using the methods described in BS3900: Part G6: 1989, British Standard Methods of test for paints, “Assessment of resistance to fungal growth”, representative compounds of this invention were tested for activity against blue-stain fungus and molds in a mold cabinet test. In brief, sticks of Scots pine (Pinus sylvestris) measuring 75×100×10 mm, were painted, allowed to dry, and sterilized by […] (1.2 mRad). […] The sticks were then with each solution. The inoculation consisted of dipping the sticks in a mixed spore suspension, then placing them in a mold chamber and incubating them for 12 weeks. The surfaces were evaluated according the following score system: 0: No growth 1: […] 2: […] 3: […] 4. […] 5. Growth covering more than 70% of the inoculated test area.

For `O=S1(=O)CCON=C1c1ccc(Br)s1` [Compound 38], which “Surface score of wooden sticks treated with paint formulation, A. pullulans” value ([1]; 0.15% a.i. in paint) is on record?
Its value is 2 (Growth covering between 1 and 10% of the inoculated test area).

What about the “Surface score of wooden sticks treated with paint formulation, A. pullulans” value ([1]; 0.3% a.i. in paint) of the same compound?
Its value is 0.

What about the “Surface score of wooden sticks treated with paint formulation, A. versicolor” value ([1]; 0.15% a.i. in paint) of the same compound?
The value was 1 (Trace of growth of up to 1% coverage of the test inoculated area).

And the “Surface score of wooden sticks treated with paint formulation, A. versicolor” value ([1]; 0.3% a.i. in paint)?
The value was 0.

And the “Surface score of wooden sticks treated with paint formulation, C. cladosporioides” value ([1]; 0.15% a.i. in paint)?
Its value is 2 (Growth covering between 1 and 10% of the inoculated test area).

And the “Surface score of wooden sticks treated with paint formulation, C. cladosporioides” value ([1]; 0.3% a.i. in paint)?
The value was 0.

And the “Surface score of wooden sticks treated with paint formulation, P. purpurogenum” value ([1]; 0.15% a.i. in paint)?
The value was 3 (Growth covering between 10 and 30% of the inoculated test area).

And the “Surface score of wooden sticks treated with paint formulation, P. purpurogenum” value ([1]; 0.3% a.i. in paint)?
The value was 3 (Growth covering between 10 and 30% of the inoculated test area).

And the “Surface score of wooden sticks treated with paint formulation, P. violacea” value ([1]; 0.15% a.i. in paint)?
Its value is 4 (Growth covering between 30 and 70% of the inoculated test area).

And the “Surface score of wooden sticks treated with paint formulation, P. violacea” value ([1]; 0.3% a.i. in paint)?
Its value is 4 (Growth covering between 30 and 70% of the inoculated test area).

What about the “Surface score of wooden sticks treated with paint formulation, R rubra (y)” value ([1]; 0.15% a.i. in paint) of the same compound?
The value was 3 (Growth covering between 10 and 30% of the inoculated test area).

And the “Surface score of wooden sticks treated with paint formulation, R rubra (y)” value ([1]; 0.3% a.i. in paint)?
The value was 0.

What about the “Surface score of wooden sticks treated with paint formulation, S. chartarum” value ([1]; 0.15% a.i. in paint) of the same compound?
The value was 5 (Growth covering more than 70t of the inoculated test area).

What about the “Surface score of wooden sticks treated with paint formulation, S. chartarum” value ([1]; 0.3% a.i. in paint) of the same compound?
Its value is 2 (Growth covering between 1 and 10% of the inoculated test area).

What about the “Surface score of wooden sticks treated with paint formulation, U. atrum” value ([1]; 0.15% a.i. in paint) of the same compound?
Its value is 4 (Growth covering between 30 and 70% of the inoculated test area).

And the “Surface score of wooden sticks treated with paint formulation, U. atrum” value ([1]; 0.3% a.i. in paint)?
Its value is 3 (Growth covering between 10 and 30% of the inoculated test area).

And the “Surface score of treated mini-boards, 3 week incubation, 1500 ppm” value ([2]; 1500 ppm, 3 week incubation)?
The value was 0.6.

And the “Surface score of treated mini-boards, 6 week incubation, 1500 ppm” value ([2]; 1500 ppm, 6 week incubation)?
Its value is 2.0.

What about the “Surface score of treated mini-boards, 3 week incubation, 2500 ppm” value ([2]; 2500 ppm, 3 week incubation) of the same compound?
The value was 0.4.

And the “Surface score of treated mini-boards, 6 week incubation, 2500 ppm” value ([2]; 2500 ppm, 6 week incubation)?
The value was 2.8.

What about the “Surface score in a paint formulation in a mold cabinet test, 6 weeks” value ([3]; 0.15% in water-based paint) of the same compound?
The value was 2.5.

What about the “Surface score in a paint formulation in a mold cabinet test, 12 weeks” value ([3]; 0.15% in water-based paint) of the same compound?
The value was 4.5.

And the “Surface score in a paint formulation in a mold cabinet test, 6 weeks” value ([3]; 0.3% in water-based paint)?
Its value is 2.5.

And the “Surface score in a paint formulation in a mold cabinet test, 12 weeks” value ([3]; 0.3% in water-based paint)?
The value was 4.0.
